This note sets out measurements from PMC6073479, “Cecropin A Modulates Tight Junction-Related Protein Expression and Enhances the Barrier Function of Porcine Intestinal Epithelial Cells by Suppressing the MEK/ERK Pathway” (International Journal of Molecular Sciences, 2018).

The test system of data set [1] is E. coli adherence to IPEC-J2 cells. The data set is described as follows: Quantifying adherent bacteria (CFU). It is filed as cell-based, Escherichia coli. The note with it: n = 3. The method, then: To calculate the number of adherent E. coli, E. coli were cocultured with IPEC-J2 cells in DMEM/high-glucose medium (no penicillin/streptomycin, no FBS). Then, the cells were washed with PBS six times and lysed with 1% Triton X-100 for 20 min at room temperature. Next, 5 μL lysates were plated on MacConkey agar plates overnight. The total number of bacteria was quantified as CFUs.

Data set [2] deals with gram-negative bacterial strains, such as E. coli, Salmonella and Pseudomonas aeruginosa. The experiment in a line: MIC/MBC test. The note with it: gram-negative strains versus Staphylococcus aureus. The format is cell-based. The protocol:
The Escherichia coli ATCC 35401, ATCC 35150, ATCC 25922, and SSI 82000, Pseudomonas aeruginosa ATCC 9027 and ATCC 27853, Salmonella ATCC13312 and ATCC9120, Salmonella typhimurium ATCC 14028, and Staphylococcus aureus ATCC 29213 strains were purchased from Guangdong Culture Collection Center. The Escherichia coli W25K strain was isolated from a piglet with diarrhea as described previously. The strains were cultured in LB medium to logarithmic growth period (OD = 0.5) and then were transferred to Mueller-Hinton Broth (MHB) medium for the minimum inhibitory concentration (MIC) or minimum bactericidal concentration (MBC) test.
The MIC test was assessed according to the process of the Clinical and Laboratory Standards Institute. The bacterial strains were diluted with MHB medium, and the concentration was 5 × 10^5 CFU/mL. Then, 180 μL bacterial suspension was transferred to 96-well cell plates. […] Then, the bacteria were cultured at 37 °C for 8 h.

Data set [3] deals with IL-6 mRNA expression. The experiment in a line: qPCR of IL-6 mRNA in IPEC-J2 cells cocultured with E. coli. The format is cell-based, porcine. The note with it: IPEC-J2 cells after coculture with E. coli, treatment for 48 h, compared to non-treated cells, n = 6. The method, then:
(§1) Total RNA was extracted using TRIzol reagent according to the manufacturer’s instructions. Concentration and purity of RNA was checked by using a NanoDrop 2000. cDNA was generated from 1 μg total RNA using a First Strand cDNA Synthesis Kit (Thermo Scientific, Waltham, MA, USA). Quantitative PCR (qPCR) was performed to quantify mRNA expression levels of IL-6, IL-8 and TNF-α relative to that of a housekeeping gene, glyceraldehyde-3-phosphate dehydrogenase (GAPDH) by using SYBR Green mix (ABI) according to the manufacturer’s instructions.

Data set [4] has as its system CDX2 protein level. The experiment in a line: Western blotting of CDX2. The format is cell-based, porcine. The note with it: IPEC-J2 cells, compared with control group, p < 0.001, n = 3. The protocol:
(§2) The total protein was extracted with lysis buffer. The concentration of protein was tested by using a BCA protein assay kit (Thermo Scientific, Waltham, MA, USA) and mixed with 5× loading buffer. 20 μg protein sample was loaded in each well. The supernatant was then separated by 10% SDS-PAGE and transferred onto a PVDF membrane (Millipore, Burlington, MA, USA). After blocking with 5% skimmed milk powder, the membrane was incubated with the appropriate primary antibodies overnight at 4 °C, followed by incubation with a horseradish peroxidase (HRP)-conjugated secondary antibody for 2 h. Bands were detected using an ECL Western Blotting Substrate (Thermo Scientific, Waltham, MA, USA). Band intensity was quantified using ImageJ software. The primary antibodies including β-actin, p-MEk, MEK, p-ERK, ERK, CDX2 were purchased from Cell Signaling Technology (CST, Danvers, MA, USA).
For orientation: Immunoblotting shows a protein as a band on a membrane.

Data set [5] has as its system IL-8 mRNA expression. The experiment in a line: qPCR of IL-8 mRNA in IPEC-J2 cells cocultured with E. coli. It is filed as cell-based, porcine. The note with it: IPEC-J2 cells after coculture with E. coli, treatment for 48 h, compared to non-treated cells, n = 6. The method, then: as §1
On the technique in general: Real-time PCR tracks product formation cycle by cycle.

The test system of data set [6] is IPEC-J2 cell monolayer. The experiment in a line: FITC-dextran paracellular permeability assay. The format is cell-based, porcine. The note with it: 12.5 μg/mL; 48 h and 72 h; FITC-dextran 5 mg/mL apical, 2 h; fluorescence 480/520 nm; p < 0.05; n = 6. The method, then:
To evaluate the permeability of the monolayer intestinal cells, FITC-dextran was used. FITC-dextran (Sigma-Aldrich, St. Louis, MO, USA) was dissolved in PBS at 5 mg/mL. After the medium was discarded, 200 μL FITC-dextran was added to the apical compartment, and 500 μL PBS was added to the basal compartment and cultured for 2 h. Then, 100 μL liquid from each well was transferred to 96-well plates, and the […] was read at 480 nm excitation and 520 nm emission wavelengths. Then, the content of the FITC-dextran in the basal compartment was calculated using a standard curve.

The subject of data set [7] is IPEC-J2 cells. The note with it: MTT; 1.5–12.5 μg/mL, 8 h; compared to control group.
Procedure: IPEC-J2 cells were cultured at 37 °C in 100% humidity and 5% CO2 conditions with DMEM/F12 (Thermo, Waltham, MA, USA) supplemented with 5% fetal bovine serum (Gibco, Waltham, MA, USA) and 1% penicillin/streptomycin.
Thiazolyl blue tetrazolium bromide (MTT) was purchased from Sigma-Aldrich (St. Louis, MI, USA). The MTT was dissolved in PBS (5 mg/mL). The cytotoxicity of AMPs to IPEC-J2 cells was tested by using an MTT assay. A density of 1 × 10^5 cells in 180 μL medium per well was seeded in 96-well plates (Corning, New York, NY, USA), and then 20 μL AMPs was added. The final concentrations were 200, 100, 50, 25, 12.5, 6.25, 3.125, were 1.56 μg/mL. After 8 h culture, 20 μL MTT was added, and then the cells were continued to culture for 4 h. The supernatant was discarded, and 150 μL DMSO was added. After 30 min shaking at room temperature, the absorbance was measured at a wavelength of 490 nm. The cell viability was calculated by using the following equation:Cell viability = (ODControl − ODAMP)/ODControl × 100%
Data set [8] relates to ERK phosphorylation. The data set is described as follows: Western blotting of p-ERK(1/2)/ERK(1/2). It is filed as cell-based, porcine. The note with it: IPEC-J2 cells, versus control group, p < 0.01, n = 3. The protocol:
as §2

The test system of data set [9] is occludin protein expression. The experiment in a line: Western blotting of occludin. The note with it: IPEC-J2 cells, versus control group, n = 3. The format is cell-based, porcine. The method, then:
as §2

Data set [10] deals with ZO-1 protein expression. The data set is described as follows: Western blotting of ZO-1. The note with it: IPEC-J2 cells, versus control group, n = 3. The format is cell-based, porcine. The method, then: as §2
Data set [11] relates to IPEC-J2 cell monolayer. The experiment in a line: Transepithelial electrical resistance (TER) measurement. It is filed as cell-based, porcine. The method, then: To evaluate the barrier integrity of IPEC-J2 cells, the transepithelial resistance (TER) and was measured, and a permeability assay was performed. The initial TER was tested before the cells were seeded. IPEC-J2 cells were then seeded in a Transwell membrane insert ([…], 0.4 μm pore size, Corning) at a density of 7 × 10^5 cells/well. Then, 200 μL and 500 μL medium was added to the apical and basal compartments, respectively. Cecropin A (12.5 μg/mL) was added to the apical and basal compartments. The TER values were measured every day by using an ohm-meter fitted with chopstick electrodes (Millipore ESR-2; Burlington, MA, USA). Before each test, the plates were placed at room temperature for 30 min. The TER was calculated by using the following equation:TER (Ω·cm^2) = (TER − TERinitial) × 0.3

For data set [12], the system named is ZO-1, claudin-1 and occludin membrane distribution. The data set is described as follows: Cell immunofluorescence of tight junction proteins. It is filed as cell-based, porcine. The note with it: IPEC-J2 cells, 400×, n = 3. The method, then: (§3) To test the expression and location of tight junction proteins (ZO-1, occludin and claudin-1) and the cytoskeleton (F-actin), cell immunofluorescence was used. The IPEC-J2 cells were cultured and became confluent on the slide. After treatment, the cells were washed with PBS three times, fixed with 4% polyoxymethylene for 30 min, and then washed by PBS again three times. For F-actin staining, 0.5% Triton X-100 was added for 20 min. After that, 0.5% bovine serum albumin was added for 1 h, and then the primary antibodies were added and incubated with the cells at 4 °C overnight. The slides were then washed with PBST three times, and the FITC-labeled secondary antibody was added for 2 h. At last, the cell nuclei were stained by using DAPI (Santa Cruz Biotechnology, Dallas, TX, USA). The slides were then observed by using a fluorescence microscope. Primary antibodies including occludin (Abcam, Cambridge, UK), claudin-1 (CST, Danvers, MA, USA) and ZO-1 (Thermo Fisher Scientific, Waltham, MA, USA) were used. For staining F-actin, FITC-phalloidin (Sigma-Aldrich, St. Louis, MI, USA) was used.

Data set [13] concerns F-actin polymerization. The data set is described as follows: Cell immunofluorescence of F-actin (FITC-phalloidin). It is filed as cell-based, porcine. The note with it: IPEC-J2 cells; FITC-phalloidin staining, 400×; n = 3. The protocol: as §3
In data set [14] the test system is claudin-1 protein expression. The experiment in a line: Western blotting of claudin-1. The format is cell-based, porcine. The note with it: IPEC-J2 cells, versus control group, n = 3. The protocol: as §2
Data set [15] deals with MEK phosphorylation. The experiment in a line: Western blotting of p-MEK/MEK. It is filed as cell-based, porcine. The note with it: IPEC-J2 cells, versus control group, p < 0.01, n = 3. The method, then:
as §2

The subject of data set [16] is TNF-α mRNA expression. The experiment in a line: qPCR of TNF-α mRNA in IPEC-J2 cells cocultured with E. coli. It is filed as cell-based, porcine. The note with it: IPEC-J2 cells after coculture with E. coli, treatment for 48 h, compared to non-treated cells, n = 6. The method, then:
as §1

No end group written: not given here.

`O=C(NOCC1CC1)c1ccc(F)c(F)c1Nc1ccc(I)cc1Cl` [PD184352]: the “adherence of E. coli” value in data set [1] (IPEC-J2 cells, inhibitor 10 μM for 48 h, compared to cecropin A group) was “reduced”.

As for “KWKLFKKIEKVGQNIRDGIIKAGPAVAVVGQATQIAK-NH2 (C-terminus assumed) [cecropin A]”, the “antibacterial activity against E. coli, Salmonella typhimurium and Pseudomonas aeruginosa compared with Staphylococcus aureus” value in [2] is “much higher”. In addition, in [3], the “IL-6 mRNA expression” value was “downregulated”. Besides, the CDX2 protein level entry in data set [4] was “upregulated”. For the same compound, the “IL-8 mRNA expression” value in data set [5] is “downregulated”. Also, in data set [1] (IPEC-J2 cells pretreated with 3.125, 6.25 and 12.5 μg/mL for 48 h), the “E. coli adherence (CFU of adherent bacteria)” value was “reduced E. coli adherence in a dose-dependent manner”. In addition, in data set [6], the “permeability of the IPEC-J2 cell monolayer (4 kDa FITC-dextran in basal compartment)” value is reported as “reduces the permeability”. Further, in data set [7], the IPEC-J2 cell viability result was “not reduced”. Besides, the ERK phosphorylation result in data set [8] was “downregulates”. The occludin protein level result in data set [9] was “significantly upregulated”. The ZO-1 protein level entry in [10] was “significantly upregulated”. The TER values result in data set [11] (IPEC-J2 monolayer on Transwell, 12.5 μg/mL apical and basal, at 48 h and 72 h, compared to control cells, p < 0.01, n = 6) is “significantly increased”; in data set [11] (inhibitor experiment (Figure 5), 24 and 48 h, compared with control group, n = 3) it was “significantly higher”. Further, in data set [12], the “membrane distribution of ZO-1, claudin-1 and occludin (TJs)” value is “much more polymerized at the cell–cell boundary”. In addition, the “F-actin polymerization / distribution” value in data set [13] was “much more polymerized at the cell–cell boundary”. For the same compound, the claudin-1 protein level result in data set [14] is “significantly upregulated”. In addition, in data set [15], the MEK phosphorylation entry was “downregulates”. Moreover, the “TNF-α mRNA expression” value in data set [16] is recorded as “downregulated”.
